Results reported in patent US20200323898A1, “COMPOSITIONS AND METHODS FOR TREATING ACUTE MYELOID LEUKEMIA” (MEMORIAL SLOAN KETTERING CANCER CENTER, priority 2017, published 2020).
Entries after “also recorded” stand apart in the source; their conditions may differ. Like-named read-outs stand apart in the source and are kept apart here.

Columns and labels:
[1] = tested on: Nras(G12D)/MLL-AF9 leukemic cells; assay: Metabolite rescue of isoniazid proliferative block in Nras(G12D)/MLL-AF9 leukemic cells; format: cell-based, mouse; details: exogenous addition of metabolite with isoniazid, day 4 (FIG. 4D-4F)
Text: The average and SEM of fold of cell proliferation are shown. “*” represents p<0.05 of one-way ANOVA test, “**” represents p<0.01 of one-way ANOVA test, “***” represents p<0.001 of one-way ANOVA test. […] The average and SEM of fold of cell proliferation are shown. “*” represents p<0.05 of one-way ANOVA test, “**” represents p<0.01 of one-way ANOVA test, “***” represents p<0.001 of one-way ANOVA test. […] The average and SEM of fold of cell proliferation are shown. “*” represents p<0.05 of one-way ANOVA test, “**” represents p<0.01 of one-way ANOVA test, “***” represents p<0.001 of one-way ANOVA test.

[2] = tested on: Nras(G12D)/MLL-AF9 leukemic cells; assay: Viability of Nras(G12D)/MLL-AF9 leukemic cells cultured with AOA or myriocin; format: cell-based, mouse; details: day 3 (FIG. 33A, 34A)
[3] = tested on: human HL60 (Human promyelocytic leukemia) cells; assay: Human HL60 cells cultured with myriocin; format: cell-based; details: day 4 of culture (FIG. 33B)
[4] = tested on: Nras(G12D)/MLL-AF9 leukemia; assay: AML mouse model: sub-lethally irradiated mice transplanted with Nras(G12D)/MLL-AF9 cells, compound treatment; format: in vivo; details: for animal survival / leukemia disease progression (luciferase signal): daily dosing vs PBS control, isoniazid 90 mg/kg intraperitoneally
Text: PDXK shRNAs were cloned into a doxycycline inducible H2 vector (D9891-25G, Sigma-Aldrich, St. Louis, Mo.). Leukemic cells were infected with viruses encoding shRNAs targeting Renilla luciferase or PDXK, followed by either in vitro culture or transplantation. For in vitro culture experiments, doxycycline was supplemented into culture medium, and the percentage of GFP^+ cells was monitored. For in vivo AML mouse model experiments, the dietary feed of the mice was supplemented with doxycycline, and luciferase expression levels were monitored. For in vivo drug efficacy experiments, leukemic cells were transplanted into sub-lethally irradiated mice. Control PBS or isoniazid (90 mg/kg) was injected 6 hours after transplant and then daily into the transplant containing mice, and luciferase expression levels were monitored. High-performance liquid chromatography-mass spectrometry (HPLC-MS) was performed as previously described in A. M. Intlekofer et al., Nat Chem Biol 13, 494-500 (2017).
For isoniazid injection experiment, Nras(G12D)/MLL-AF9 leukemic cells were collected and resuspended in PBS at a concentration of 5 million/ml. 5-6 weeks old B6-LY5 mice (Charles River Labs, Wilmington Mass.) were sublethally irradiated (450 cGy) and transplanted with 1 million leukemic cells through tail vein injection. PBS or 90 mg/kg isoniazid were intraperitoneally injected daily.
The leukemia disease progress was monitored by in vivo bioluminescent imaging using IVIS Lumina image system (Xenogen) every 3 days. Before imaging, all mice were anesthetized with 2% isoflurane, and anesthesia was also maintained during the image acquisition inside Xenogen dark chamber. 300 mg/kg D-Luciferin (Gold Biotechnology Olivette, Mo.) in PBS at 15 mg/ml was intraperitoneally injected ˜12 minutes before image capturing. The bioluminescence was acquired and quantitatively analyzed by the Living Image software.

human leukemic cells [5] = assay: Viability of human leukemic cell lines cultured with AOA; format: cell-based; details: human Molm13, Thp1, ml2, Nomo1, Semk2, Kasumi leukemic cells, day 3 (FIG. 34B-34G)
PDXK = target: T1, PDXK (Homo sapiens, UniProt O00764); assay: Intracellular PLP levels (PDXK inhibition) in human Molm13 leukemic cells; format: cell-based; details: human Molm13 leukemic cells (FIG. 17B, 18B)
T1 construct: endogenous in cells; host or cells: human Molm13 (MOLM13) AML cells
T1 sequence (O00764 1-312): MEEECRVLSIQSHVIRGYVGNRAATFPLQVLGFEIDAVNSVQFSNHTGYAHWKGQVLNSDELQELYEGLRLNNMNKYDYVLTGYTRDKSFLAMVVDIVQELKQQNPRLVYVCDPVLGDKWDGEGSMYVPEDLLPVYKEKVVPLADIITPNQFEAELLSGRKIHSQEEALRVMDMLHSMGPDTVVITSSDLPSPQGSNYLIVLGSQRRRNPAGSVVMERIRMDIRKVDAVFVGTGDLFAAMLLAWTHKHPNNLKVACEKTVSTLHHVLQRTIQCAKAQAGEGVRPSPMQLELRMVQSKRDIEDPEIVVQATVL
Method: (§1) LC-MS grade solvents were purchased from Thermo Fisher Scientific (Waltham, Mass.), metabolite standards were purchased from Sigma (St. Louis, Mo.) unless stated otherwise. Nras(G12D)/MLL-AF9 cells infected with viruses encoding Pdxk shRNAs were harvested after 5 days of doxycycline induction. Human MOLM13 cells infected with viruses encoding Pdxk sgRNAs were harvested at day 11 post infection. Nras(G12D)/MLL-AF9 cells or MOLM13 cells were treated with indicated concentrations of isoniazid and harvested after 5 days treatment.
In each case, 2 million cells were collected by centrifugation at 440×g, media was aspirated and 1004 of ice-cold 10% trichloroacetic acid with or without 100 ng/mL d3-pyridoxal (d3-PL), d3-pyridoxine (d3-PN), d3-pyridoxamine (d3-PM), d3-pyridoxal phosphate (d3-PLP) (IsoSciences LLC, Ambler Pa.) was added for metabolite extraction. For experiments involving isoniazid treatment, cells were washed once with PBS to remove residual drug and minimize post-lysis reactions between isoniazid and PLP, which was confirmed by monitoring the d3-PLP internal standard. After overnight incubation at −80° C., samples were vortexed and transferred to 1.7 mL conical eppendorf tubes and centrifuged at 21,000×g for 20 min at 4° C. The supernatant was transferred to autosampler vials for LC-MS analysis. Vitamin B species separation was performed using an Agilent 1290 infinity pump and XSelect HSS T3 column (150×2.1 mm, 3.5 μm; Waters Corporation, Milford Mass.). Mobile phase A was 0.1% heptaflurobutyric acid (HFBA, Thermo Fisher, Waltham Mass.) and 0.1% formic acid (FA, Thermo Fisher, Waltham Mass.) in water, mobile phase B was 0.1% HFBA and 0.1% FA in acetonitrile. The injection volume was 10 μL and LC gradient conditions were: 0 min: 0% B; 1 min: 0% B; 7 min: 25% B; 8 min: 25% B; 9 min: 100% B; 10.5 min: 100% B, with 4.5 min of re-equilibration time. MS detection was performed using an Agilent 6230 TOF accurate mass spectrometer with Dual JetStream source operating in positive ionization mode. MS parameters were: gas temp 250° C.; gas flow: 13 L/min; nebulizer pressure: 45 psig; sheath gas temp: 225° C.; sheath gas flow: 12 L/min; VCap: 3,500 V; Fragmentor: 175 V; Skimmer: 65 V; Octopole RF: 750 V. Active mass axis correction was performed using a second nebulizer and pyridine (80.049480) and roxithromycin (837.53185). Data was acquired from m/z 50-1700 at 1.5 spectra/sec. Accurate mass (±20 ppm) and retention time was confirmed relative to the pure standards. Data analysis was performed using MassHunter software (Agilent, Santa Clara Calif.).

human leukemic cells [6] = assay: Proliferation / growth of human leukemic cell lines cultured with compound; format: cell-based; details: for growth of human AML cells in vitro: indicated leukemic cell lines (FIG. 17C, 18C)
Method: The average and STDEV of relative cell proliferation are shown.
(§2) Mouse AML cell lines, human AML cell lines, iMEF cell line and 3T3 cell line were infected with virus encoding Cas9 (Addgene 52962, Watertown Mass.) followed with blastcitidin selection to generate Cas9 cell lines. All viral sgRNA infection experiments were performed on Cas9 cell lines. All viral shRNA infection experiments were performed on cell lines carrying rtTA3. Mouse leukemic cell lines including Nras(G12D)/MLL-AF9, MLL-AF9, Nras(G12D)/IDH, Nras(G12D)/NPM1, and IDH/Flt3 were cultured in RPMI medium supplemented with 10% Fetal Bovine Serum (FBS), L-glutamine, penicillin streptomycin, recombinant mouse SCF, IL-3 and IL-6. Human leukemic cell lines MOLM13, M12, Semk2, THP1, and K562 were cultured in RPMI medium supplemented with 10% FBS, L-glutamine, penicillin, and streptomycin. Vitamin B6 depleted medium (VB6−) was prepared by customized pyridoxin (−) RPMI (Gibco, Gaithersburg, Md.) with 10% dialyzed FBS, L-glutamine, penicillin, and streptomycin. Pyridoxin hydrochloride (Sigma, St Louis Mo.) was added back to VB6(−) medium to make the VB6 (+) medium used for leukemia and MEF culture. Control or gene targeting sgRNAs or shRNAs were delivered by lentivirus. Spin infections were performed at 37° C. and 1500 RPM for 60 minutes. After spin infection, viral supernatants were substituted with leukemic cell culture medium. For compound treatment, isoniazid was added in culture medium at indicated concentrations.
(§3) For competition and cell proliferation experiments, mouse or human leukemic cells were infected with viruses encoding sgRNAs or shRNAs. Spin infections were performed at 37 degree and 1500 RPM for 60 minutes. After spin infection, viral supernatants were substituted with leukemic cell culture medium. GFP+ percentage or cell number was monitored during culture using guava flow cytometer. The absolute cell number was measured by using flow cytometry absolute count standard (Bangs Laboratories Inc., Fishers Ind.). The experimental results were analyzed by guavasoft software.

bone marrow HSPCs = assay: Proliferation of bone marrow HSPCs cultured with compound; format: cell-based, mouse
Text: The average and STDEV of relative cell proliferation of 3 replicates are shown.
Bone marrow hematopoietic stem and progenitor cell isolation, culture, and compound treatment. For isolation of bone marrow cells, the bone marrow from the femur and tibia was flushed into ice cold PBS buffer. After red blood cell lysis with ammonium chloride (STEMCELL 07850, Vancouver Canada), the bone marrow cells were resuspended with PBS and filtered into a round bottom tube with cell strainer cap. The hematopoietic cells lineages were stained with biotin mouse lineage panel (BD Biosciences 559971, San Jose Calif.), then isolated by magnetic beads separation. For c-Kit positive cells, mouse hematopoietic cells were isolated from bone marrow using MACS CD117 isolation system. Purified bone marrow cells were cultured in RPMI medium supplemented with recombinant mouse SCF, IL-3, and IL-6. Control or Pdxk targeting sgRNAs or shRNAs were delivered by lentivirus. Spin infections were performed at 37 degree and 1500 RPM for 60 minutes. After spin infection, viral supernatants were substituted with leukemic cell culture medium. For compound treatment, isoniazid was added in culture at indicated concentrations.

PLP = assay: Intracellular PLP levels by HPLC-MS in Nras(G12D)/MLL-AF9 leukemic cells cultured with isoniazid; format: cell-based, mouse; details: day 5 of culture, HPLC-MS (FIG. 2E)
Method: The abundance of PLP was measured by high-performance liquid chromatography-mass spectrometry (HPLC-MS) and normalized to the level [^3D]-labeled PLP (internal control). The average and STDEV are shown. Western blot analysis was performed to measure the expression levels of PDXK protein.
as §1
In each case, 2 million cells were collected by centrifugation at 440×g, media was aspirated and 1004 of ice-cold 10% trichloroacetic acid with or without 100 ng/mL d3-pyridoxal (d3-PL), d3-pyridoxine (d3-PN), d3-pyridoxamine (d3-PM), d3-pyridoxal phosphate (d3-PLP) (IsoSciences LLC, Ambler Pa.) was added for metabolite extraction. For experiments involving isoniazid treatment, cells were washed once with PBS to remove residual drug and minimize post-lysis reactions between isoniazid and PLP, which was confirmed by monitoring the d3-PLP internal standard. […]

mouse leukemic cells = assay: Proliferation of mouse leukemic cell lines cultured with compound; format: cell-based; details: mouse leukemic cell lines with different genetic drivers, day 6 (FIG. 1I)
Method: as §2, with “Pyridoxin hydrochloride (Sigma, St Louis Mo.) was added back to VB6(−) medium to make the VB6 (+) medium used for leukemia and MEF culture. Control or gene targeting sgRNAs or shRNAs were delivered by lentivirus. Spin infections were performed at 37° C. and 1500 RPM for 60 minutes. After spin infection, viral supernatants were substituted with leukemic cell culture medium. For compound treatment, isoniazid was added in culture medium at indicated concentrations.” left out
as §3, with “Spin infections were performed at 37 degree and 1500 RPM for 60 minutes. After spin infection, viral supernatants were substituted with leukemic cell culture medium.” left out

NC(=O)C[C@H](N)C(=O)O [asparagine]
rescue of proliferative block produced by isoniazid [1]: partially rescued

CCCCCCC(=O)CCCCCC/C=C/C[C@@H](O)[C@H](O)[C@@](N)(CO)C(=O)O [myriocin]
viability of leukemic cells in vitro [2]: reduced the viability | sensitivity of HL60 cells to treatment [3]: less sensitive

NCCCCN [putrescine]
rescue of proliferative block produced by isoniazid [1]: partially rescued

O=c1ccn([C@@H]2O[C@H](CO)[C@@H](O)[C@H]2O)c(=O)[nH]1 [uridine]
rescue of proliferative block produced by isoniazid [1]: partially rescued

NOCC(=O)O [AOA, aminooxyacetic acid]
animal survival [4]: extended survival | leukemia disease progression (luciferase signal) [4]: significantly delayed leukemia disease maintenance | viability of leukemic cells in vitro [2]: reduced the viability | viability of leukemic cells in vitro (human leukemic cells [5]): reduced the viability

CC[C@H](CO)Nc1nc(N(C)Cc2ccccc2)c2ncn(C(C)C)c2n1 [aftin-4]
PDXK inhibition (PDXK): can nhibit PDXK | intracellular levels of PLP (PDXK): reduced intracellular levels of PLP | growth of human AML cells in vitro (human leukemic cells [6]): can suppress the growth; also recorded: inhibited the growth

COCc1c(CO)cnc(C)c1O [gingkotoxin]
PDXK inhibition (PDXK): can inhibit PDXK | intracellular levels of PLP (PDXK): reduced intracellular levels of PLP | intracellular levels of PLP (PDXK; listed as ginkgotoxin): reduce intracellular levels of PLP | growth of human AML cells in vitro (human leukemic cells [6]): suppressed tumor growth | growth of human AML cells in vitro (human leukemic cells [6]; listed as ginkgotoxin): can suppress the growth | proliferation of bone marrow lineage negative HSPCs (bone marrow HSPCs; bone marrow lineage negative HSPCs, day 6 (FIG. 26A-26B)): little effect | animal survival [4]: improved survival | leukemia disease progression (luciferase signal) [4]: slowed down disease progression

NNC(=O)c1ccncc1 [isoniazid]
intracellular PLP levels (PLP): reduced intracellular PLP levels | proliferation of mouse leukemic cells (mouse leukemic cells): blocked proliferation | proliferation of human leukemic cells (human leukemic cells [6]; human leukemic cell lines, day 6 of culture (FIG. 7G, 25A-25C)): blocked proliferation | proliferation of bone marrow HSPCs (bone marrow HSPCs): only a subtle reduction | proliferation of bone marrow lineage negative HSPCs (bone marrow HSPCs): little effect | animal survival [4]: produced a survival advantage | leukemia disease progression (luciferase signal) [4]: delayed disease progression | reduction of PLP in plasma and bone marrow cells ([4]; isoniazid 90 mg/kg intraperitoneally daily, day 12 post transplant, HPLC-MS (FIG. 13B)): ~25%
